In assay [1] the target is T1, human TRPV1 receptor (hTRPV1) (Homo sapiens (Human), UniProt Q8NER1). As to the kind of experiment: Capsaicin activation assay (FLIPR intracellular Ca2+). To be noted: Table 1; inhibition of capsaicin-induced intracellular Ca2+ increase, HEK293 cells expressing human TRPV1; read-out: hTRPV1 cap IC50. The class given is cell-based. The method, then:
Dulbecco's modified Eagle medium (D-MEM) (with 4.5 mg/mL glucose) and fetal bovine serum were obtained from Hyclone Laboratories, Inc. (Logan, Utah). Dulbecco's phosphate-buffered saline (D-PBS) (with 1 mg/mL glucose and 3.6 mg/l Na pyruvate, without phenol red), L-glutamine, hygromycin B, and Lipofectamine® were obtained from Life Technologies (Grand Island, N.Y.). G418 sulfate was obtained from Calbiochem-Novabiochem Corp. (San Diego, Calif.). Capsaicin (8-methyl-N-vanillyl-6-nonenamide) was obtained from Sigma-Aldrich, Co. (St. Louis, Mo.). Fluo-4 AM (N-[4-[6-[(acetyloxy)methoxy]-2,7-difluoro-3-oxo-3H-xanthen-9-yl]-2-[2-[2-[bis[2-[(acetyloxy)methoxy]-2-oxyethyl]amino]-5-methyl phenoxy]ethoxy]phenyl]-N-[2-[(acetyloxy)methoxy]-2-oxyethyl]-glycine, (acetyloxy)methyl ester) was purchased from Molecular Probes (Eugene, Oreg.). […]
The functional activity of compounds at the TRPV1 receptor was determined by measurement of intracellular Ca^2+ levels ([Ca^2+]i) using the Fluorescence Imaging Plate Reader (FLIPR)^TETRA®. All compounds were tested over a 12-point one-third-log concentration range. Compound stocks, 10 mM, were prepared in DMSO, and diluted serially across a 384-well plate using a Bravo BenchCel workstation (Agilent Technologies, Santa Clara, Calif.). A stock concentration of capsaicin (10 mM) was made in DMSO, and diluted in D-PBS to a final concentration of 200 nM (4×). On the day prior to the experiment, recombinant HEK293 cells that stably express human TRPV1 were removed from tissue culture flasks and plated in growth medium into black-walled clear-bottom 384-well Biocoat™ poly-D-lysine assay plates (BD Biosciences, Bedford, Mass.) using a Multidrop® dispenser (ThermoScientific, Waltham, Mass.). On the day of the experiment, growth medium was removed, and the no-wash FLIPR® Calcium-4 dye (λEX=470-495 nm, λEM=515-575 nm; Molecular Devices, Sunnyvale, Calif.) was added to each well using the Multidrop® dispenser. Cells were incubated for 90-120 minutes in the dark at room temperature. Test compounds were added to the cells 3 minutes prior to the addition of 200 nM capsaicin (4×), and the final assay volume was 80 μL. Fluorescence readings were made at 1 to 5 second intervals over the course of the experimental run. The peak increase in relative fluorescence units (minus baseline) was calculated, and expressed as a percentage of the 50 nM capsaicin (control) response.

Assay [2] has as its target T1, human TRPV1 receptor (hTRPV1). Briefly: Acid activation assay (pH 5.0, FLIPR intracellular Ca2+). The class given is cell-based. To be noted: Table 1; 37.5 μM antagonist, percentage of the maximal pH 5.0-induced response remaining; read-out: hTRPV1 H+ (max % remain). The protocol: Dulbecco's modified Eagle's medium (DMEM) with 4.5 mg/mL D-glucose, fetal bovine serum, L-glutamine, and 2-morpholinoethanesulfonic acid (MES) were purchased from Sigma-Aldrich Co. (St. Louis, Mo.). Dulbecco's phosphate-buffered saline (DPBS) with Ca^2+, Mg^2+, and 1 mg/mL D-glucose (pH 7.4), Geneticin®, 0.25% trypsin-1 mM EDTA, and penicillin-streptomycin were purchased from Invitrogen Corp. (Carlsbad, Calif.). The FLIPR® Calcium 4 assay kit was purchased from Molecular Devices (Sunnyvale, Calif.).
The cDNAs for the human TRPV1 receptor (hTRPV1) were isolated by reverse transcriptase-polymerase chain reaction (RT-PCR) from human small intestine poly A+RNA supplied by Clontech (Palo Alto, Calif.) using primers designed surrounding the initiation and termination codons identical to the published sequences (Hayes et al. Pain 2000, 88, 205-215). The resulting cDNA PCR products were subcloned into pCIneo mammalian expression vector (Promega) and fully sequenced using fluorescent dye-terminator reagents (Prism, Perkin-Elmer Applied Biosystems Division) and a Perkin-Elmer Applied Biosystems Model 373 DNA sequencer or Model 310 genetic analyzer. Expression plasmids encoding the hTRPV1 cDNA were transfected individually into 1321N1 human astrocytoma cells using Lipofectamine. Forty-eight hours after transfection, the neomycin-resistant cells were selected with growth medium containing 800 μg/mL Geneticin (Gibco BRL). Surviving individual colonies were isolated and screened for TRPV1 receptor activity. Cells expressing recombinant homomeric TRPV1 receptors were maintained at 37° C. in DMEM containing 4 mM L-glutamine, 300 μg/mL G418 (Cal-biochem) and 10% fetal bovine serum under a humidified 5% CO2 atmosphere.
The functional activity of compounds at the TRPV1 receptor was determined by measurement of intracellular Ca^2+ levels ([Ca^2+]i) using the Fluorescence Imaging Plate Reader (FLIPR)^TETRA®. All compounds were tested over a 12-point one-half-log concentration range. Compound stocks, 10 mM, were prepared in DMSO, and diluted serially across a 384-well plate using a Bravo BenchCel workstation (Agilent Technologies, Santa Clara, Calif.).
On the day of the experiment growth medium was removed, and the no-wash FLIPR® Calcium-4 dye (λEX=470-495 nm, λEM=515-575 nm) was added to each well using the Multidrop® dispenser. Cells were incubated for 90-120 minutes in the dark at 25° C. Test compounds were dissolved in DMSO, and plates were prepared using an Agilent Bravo workstation (Agilent Technologies Inc., Santa Clara, Calif.). Compounds were added to the cells 3 minutes prior to the addition of a pH 5.0 solution. Reagents were delivered at a rate of 40 μL/sec, and the final assay volume was 80 μL. Acidic pH solutions were prepared by titration of DPBS/MES with 1 N HCl. The intensity of the fluorescence was captured and digitally transferred to an interfaced PC.

pIC50: −log10 of the molar value.

T1 sequence (Q8NER1 whole entry): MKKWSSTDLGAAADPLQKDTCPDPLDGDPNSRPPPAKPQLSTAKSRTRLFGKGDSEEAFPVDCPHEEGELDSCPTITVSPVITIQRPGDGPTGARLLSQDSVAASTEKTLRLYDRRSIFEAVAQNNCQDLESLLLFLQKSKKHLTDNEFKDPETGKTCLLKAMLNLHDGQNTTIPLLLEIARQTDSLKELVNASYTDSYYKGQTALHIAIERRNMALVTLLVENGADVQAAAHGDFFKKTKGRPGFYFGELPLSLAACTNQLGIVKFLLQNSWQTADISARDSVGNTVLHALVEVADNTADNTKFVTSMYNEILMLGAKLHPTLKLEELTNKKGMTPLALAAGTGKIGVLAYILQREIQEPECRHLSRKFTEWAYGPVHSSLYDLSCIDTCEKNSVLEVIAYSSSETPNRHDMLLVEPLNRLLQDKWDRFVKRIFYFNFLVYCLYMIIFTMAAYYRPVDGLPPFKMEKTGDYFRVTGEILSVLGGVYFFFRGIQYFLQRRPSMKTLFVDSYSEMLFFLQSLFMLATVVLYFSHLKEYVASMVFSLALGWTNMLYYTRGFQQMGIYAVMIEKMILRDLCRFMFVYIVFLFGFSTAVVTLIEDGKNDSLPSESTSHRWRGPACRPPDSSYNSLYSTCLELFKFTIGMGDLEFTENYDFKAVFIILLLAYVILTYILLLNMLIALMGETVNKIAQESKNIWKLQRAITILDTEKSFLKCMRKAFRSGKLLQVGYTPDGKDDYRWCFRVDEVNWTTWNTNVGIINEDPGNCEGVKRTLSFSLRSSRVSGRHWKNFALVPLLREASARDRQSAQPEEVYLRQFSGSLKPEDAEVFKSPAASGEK

As to `O=C1CCc2ccc(NC(=O)N[C@H]3CC[C@@H](c4ccccc4)C3)cc2N1` [Example 26, 1-(2-oxo-1,2,3,4-tetrahydroquinolin-7-yl)-3-[(1S,3R)-3-phenylcyclopentyl]urea], the negative logarithm of the IC50 (pIC50) (commonly the negative decadic logarithm of the IC50, by convention in mol/L) in assay [1] was 6.26. Besides, in assay [2], the remaining activity at 37.5 µM stood at 65%.

On to `CC(C)(C)c1ccc(C2CCCC(NC(=O)Nc3cccc4[nH]ncc34)C2)cc1` (stereo not drawn) [Example 29, 1-[3-(4-tert-butylphenyl)cyclohexyl]-3-(1H-indazol-4-yl)urea], for which, in assay [1], the pIC50 was 5.76. Moreover, the remaining activity at 37.5 µM in assay [2] amounted to 68%.

For the compound `O=C(Nc1cccc2[nH]ncc12)NC1CCCC(c2ccc(C(F)(F)F)cc2)C1` (stereo not drawn) [Example 30, 1-(1H-indazol-4-yl)-3-{3-[4-(trifluoromethyl)phenyl]cyclohexyl}urea], in assay [1], the negative-log IC50 (pIC50) is 5.98. Besides, the remaining activity at 37.5 µM in assay [2] amounted to 26%.

`O=C(Nc1cccc2[nH]ncc12)N[C@@H]1CCC[C@@H](c2ccc(C(F)(F)F)cc2)C1` [Example 31, 1-(1H-indazol-4-yl)-3-{(1R,3R)-3-[4-(trifluoromethyl)phenyl]cyclohexyl}urea]: the negative logarithm of the IC50 (pIC50) in assay [1] was 5.74. The remaining activity at 37.5 µM in assay [2] was 35%.

For `O=C(Nc1cccc2[nH]ncc12)N[C@H]1CCC[C@H](c2ccc(C(F)(F)F)cc2)C1` [Example 32, 1-(1H-indazol-4-yl)-3-{(1S,3S)-3-[4-(trifluoromethyl)phenyl]cyclohexyl}urea], in assay [1], the pIC50 was 6.10. Further, in assay [2], the remaining activity at 37.5 µM was found to be 32%.

Consider `O=C(Nc1cccc2[nH]ncc12)N[C@H]1CCC[C@@H](c2ccc(C(F)(F)F)cc2)C1` [Example 33, 1-(1H-indazol-4-yl)-3-{(1S,3R)-3-[4-(trifluoromethyl)phenyl]cyclohexyl}urea], for which the negative-log IC50 (pIC50) in assay [1] is 5.06. For the same compound, the remaining activity at 37.5 µM in assay [2] worked out at 68%.

With `O=C(Nc1cccc2[nH]ncc12)N[C@H]1CCC[C@H](c2ccccc2)C1` [Example 35, 1-(1H-indazol-4-yl)-3-[(1S,3S)-3-phenylcyclohexyl]urea], in assay [1], the pIC50 is 6.53. The remaining activity at 37.5 µM in assay [2] came out at 11%.

As for `O=C(Nc1cccc2[nH]ncc12)N[C@@H]1CCC[C@H](c2ccccc2)C1` [Example 36, 1-(1H-indazol-4-yl)-3-[(1R,3S)-3-phenylcyclohexyl]urea], in assay [1], the negative logarithm of the IC50 (pIC50) was 7.25. Besides, the remaining activity at 37.5 µM in assay [2] was found to be 8%.

Regarding `CC(C)(C)c1ccc(C2CCC(NC(=O)Nc3cccc4[nH]ncc34)C2)cc1` (stereo not drawn) [Example 37, 1-[3-(4-tert-butylphenyl)cyclopentyl]-3-(1H-indazol-4-yl)urea], in assay [1], the pIC50 was 6.37. For the same compound, in assay [2], the remaining activity at 37.5 µM was determined as 6%.

Regarding `COc1ccc(C2CCC(NC(=O)Nc3cccc4[nH]ncc34)C2)cc1` (stereo not drawn) [Example 40, 1-(1H-indazol-4-yl)-3-[3-(4-methoxyphenyl)cyclopentyl]urea], the pIC50 in assay [1] is 7.11. Also, the remaining activity at 37.5 µM in assay [2] came to 1%.

As to `O=C(Nc1cccc2[nH]ncc12)N[C@H]1CC[C@H](c2ccc(C(F)(F)F)cc2)C1` [Example 41, 1-(1H-indazol-4-yl)-3-{(1S,3S)-3-[4-(trifluoromethyl)phenyl]cyclopentyl}urea], in assay [1], the pIC50 was 6.51. Further, in assay [2], the remaining activity at 37.5 µM was 1%.

As to `O=C(Nc1cccc2[nH]ncc12)N[C@@H]1CC[C@H](c2ccc(C(F)(F)F)cc2)C1` [Example 42, 1-(1H-indazol-4-yl)-3-{(1R,3S)-3-[4-(trifluoromethyl)phenyl]cyclopentyl}urea], in assay [1], the pIC50 is 7.77. Further, the remaining activity at 37.5 µM in assay [2] was determined as 3%.

On to `O=C(Nc1cccc2[nH]ncc12)N[C@H]1CC[C@@H](c2ccc(C(F)(F)F)cc2)C1` [Example 43, 1-(1H-indazol-4-yl)-3-{(1S,3R)-3-[4-(trifluoromethyl)phenyl]cyclopentyl}urea], for which the negative-log IC50 (pIC50) in assay [1] was 6.66. For the same compound, in assay [2], the remaining activity at 37.5 µM was found to be 55%.

With `O=C(Nc1cccc2[nH]ncc12)N[C@@H]1CC[C@@H](c2ccc(C(F)(F)F)cc2)C1` [Example 44, 1-(1H-indazol-4-yl)-3-{(1R,3R)-3-[4-(trifluoromethyl)phenyl]cyclopentyl}urea], in assay [1], the negative logarithm of the IC50 (pIC50) is 6.77. In assay [2], the remaining activity at 37.5 µM is 13%.

As to `O=C(Nc1cccc2[nH]ncc12)NC1CC[C@H](c2ccc(F)cc2)C1` (stereo partly drawn) [Example 45, 1-[(3S)-3-(4-fluorophenyl)cyclopentyl]-3-(1H-indazol-4-yl)urea], the negative-log IC50 (pIC50) in assay [1] was 7.59. Besides, in assay [2], the remaining activity at 37.5 µM amounted to 9%.

`CSc1ccc([C@H]2CCC(NC(=O)Nc3cccc4[nH]ncc34)C2)cc1` (stereo partly drawn) [Example 46, 1-(1H-indazol-4-yl)-3-{(3S)-3-[4-(methylsulfanyl)phenyl]cyclopentyl}urea]: the pIC50 in assay [1] was 7.06. In addition, the remaining activity at 37.5 µM in assay [2] came out at 7%.

As for `CN(C)c1ccc([C@H]2CCC(NC(=O)Nc3cccc4[nH]ncc34)C2)cc1` (stereo partly drawn) [Example 47, 1-{(3S)-3-[4-(dimethylamino)phenyl]cyclopentyl}-3-(1H-indazol-4-yl)urea], in assay [1], the negative logarithm of the IC50 (pIC50) was 6.54. The remaining activity at 37.5 µM in assay [2] stood at 3%.

For the compound `O=C(Nc1cccc2[nH]ncc12)N[C@H]1CC[C@@H](C2CCCCC2)C1` [Example 49, 1-((1S,3R)-3-cyclohexylcyclopentyl)-3-(1H-indazol-4-yl)urea], in assay [1], the pIC50 is 7.18. Moreover, the remaining activity at 37.5 µM in assay [2] was 68%.

On to `Cn1c(=O)ccc2c(NC(=O)N[C@H]3CC[C@@H](c4ccccc4)C3)cccc21` [Example 50, 1-(1-methyl-2-oxo-1,2-dihydroquinolin-5-yl)-3-((1S,3R)-3-phenylcyclopentyl)urea], for which, in assay [1], the negative logarithm of the IC50 (pIC50) is 7.11. For the same compound, the remaining activity at 37.5 µM in assay [2] turned out to be 59%.

With `O=C(Nc1cccc2[nH]ncc12)N[C@H]1C[C@@H](c2ccccc2)[C@@H](O)[C@H]1O` [Example 52, 1-((1S,2S,3R,4S)-2,3-dihydroxy-4-phenylcyclopentyl)-3-(1H-indazol-4-yl)urea], the pIC50 in assay [1] is 4.65. For the same compound, in assay [2], the remaining activity at 37.5 µM was 67%.

For the compound `O=C(Nc1cccc2[nH]ncc12)N[C@H]1C[C@@H](c2ccccc2)[C@H](O)[C@@H]1O` [Example 53, 1-((1S,2R,3S,4S)-2,3-dihydroxy-4-phenylcyclopentyl)-3-(1H-indazol-4-yl)urea], in assay [1], the pIC50 was under 4.43. Also, the remaining activity at 37.5 µM in assay [2] stood at 84%.

These data come from patent publication US8802711B2, “TRPV1 antagonists” (AbbVie Inc., priority 2011, dated 2014).
